In ChEMBL document CHEMBL1123729, “Synthesis and biological activity of partially modified retro-inverso pseudopeptide derivatives of the C-terminal tetrapeptide of gastrin” (J Med Chem, 1987):
Active and inactive are the calls of the source. No cut-off for these calls is given here. Peptide text beside a SMILES is read from it. * marks the point of attachment. Boc = CC(C)(C)OC(=O)*

Assays:
Rattus norvegicus [1] = experiment: Agonistic activity against gastrin induced acid secretion in the anesthetized rats; No agonist activity at doses as high as 3 mg/kg; type: functional, organism-based; set-up: dose 3 mg/kg
Rattus norvegicus [2] = experiment: Effective dose required to inhibit gastrin-induced acid secretion in the in situ perfused rat stomach (anesthetized rat); type: functional
Rattus norvegicus [3] = experiment: Agonistic activity against gastrin induced acid secretion in the anesthetized rats at a dose of 3 mg/kg; **** indicate full activity of tetragastrin; type: functional, organism-based; set-up: dose 3 mg/kg; details: filed as agonist
Rattus norvegicus [4] = experiment: Agonistic activity against gastrin induced acid secretion in the anesthetized rats at a dose of 3 mg/kg;*=1/4 of the agonistic activity; type: functional, organism-based; set-up: dose 3 mg/kg; details: filed as partial agonist

| SMILES | Agonist activity (Rattus norvegicus [1]) | ED50 (Rattus norvegicus [2]) [µmol/kg] | Agonist activity (Rattus norvegicus [3]) | Agonist activity (Rattus norvegicus [4]) |
| --- | --- | --- | --- | --- |
| CC(C)C[C@H](NC(=O)[C@@H](Cc1c[nH]c2ccccc12)NC(=O)OC(C)(C)C)C(=O)N[C@H](CC(=O)O)NC(=O)CCc1ccccc1 | inactive | 0.15 | – | – |
| CC(C)C[C@H](NC(=O)[C@H](Cc1c[nH]c2ccccc12)NC(=O)OC(C)(C)C)C(=O)N[C@@H](CC(=O)O)C(=O)N[C@@H](Cc1ccccc1)C(N)=O (Boc-WLDF-NH2) | – | – | Agonist | – |
| CC(C)C[C@@H](NC(=O)[C@H](CC(=O)O)NC(=O)C(Cc1ccccc1)C(N)=O)NC(=O)[C@@H](Cc1c[nH]c2ccccc12)NC(=O)OC(C)(C)C (some centres not stated) | – | 0.15 | – | Partial agonist |
| CCCC[C@@H](NC(=O)[C@H](CC(=O)O)NC(=O)CCc1ccccc1)NC(=O)[C@@H](Cc1c[nH]c2ccccc12)NC(=O)OC(C)(C)C | – | 2.5 | – | Partial agonist |
| CC(C)C[C@H](NC(=O)[C@H](Cc1c[nH]c2ccccc12)NC(=O)OC(C)(C)C)C(=O)N[C@H](CC(=O)O)NC(=O)NCc1ccccc1 | inactive | 0.9 | – | – |
| CC(C)C[C@H](NC(=O)[C@@H](Cc1c[nH]c2ccccc12)NC(=O)OC(C)(C)C)C(=O)N[C@H](CC(=O)O)NC(=O)C(Cc1ccccc1)C(N)=O (some centres not stated) | – | 0.3 | – | Partial agonist |
| CCCC[C@@H](NC(=O)[C@H](CC(=O)O)NC(=O)NCc1ccccc1)NC(=O)[C@@H](Cc1c[nH]c2ccccc12)NC(=O)OC(C)(C)C | – | 1.1 | – | Partial agonist |
| CCCCOC(=O)CCNC(=O)[C@H](Cc1c[nH]c2ccccc12)NC(=O)[C@@H](CCCC)NC(=O)[C@H](CC(=O)O)NC(=O)CCc1ccccc1 | – | 10.4 | – | – |
| CCCN(CCC)C(=O)C(CCC(=O)O)NC(=O)c1ccccc1 (configuration not stated) [PROGLUMIDE] | inactive | 350 | – | – |
| CCCCOC(=O)CCNC(=O)[C@H](Cc1c[nH]c2ccccc12)NC(=O)[C@@H](CCCC)NC(=O)[C@H](CC(=O)O)NC(=O)NCc1ccccc1 | inactive | – | – | – |
